Earlier results as cited in patent US20010031278A1, “Sustained release oxycodone formulations with no fed/fast effect” (priority 1996, published 2001).

Details: gastric fluid (pH about 1) vs intestinal fluid (pH about 7.5)

SMILES: COc1ccc2c3c1O[C@H]1C(=O)CC[C@@]4(O)[C@@H](C2)N(C)CC[C@]314.Cl [Oxycodone hydrochloride]
- solubility at low vs high pH: more soluble in gastric fluid (pH about 1) than in intestinal fluid (pH about 7.5)
